Source: patent US20210277102A1, “COMPOSITIONS AND METHODS FOR TREATING A TUMOR SUPPRESSOR DEFICIENT CANCER” (BETH ISRAEL DEACONESS MEDICAL CENTER, INC., priority 2016, published 2021)
Entries after “also recorded” stand apart in the source; their conditions may differ.

Experiments:
[1] = system: Pten^pc−/−; Trp53^pc−/− prostate tumors; test: In vivo drug and antibody treatment of Pten^pc−/−; Trp53^pc−/− mice (MRI, flow cytometry, histology); design: species or system mouse
Protocol: (§1) Mice were allocated at random to experimental groups and studies were performed in an unblended manner. For treatment with the CXCR2 antagonist, SB225002 (Cayman Chemical #13336) was dissolved in DMSO (10 mg/ml) and diluted in vehicle (0.9% NaCl, 0.3% Tween 80) for in vivo administration. Mice (4 months of age) were treated daily for 10 days by intraperitoneal injection (5 mg/kg) and prostate tumor tissue (anterior lobes) was subjected to Flow Cytometry and histological analysis. For MRI analysis, mice (4 months of age) were treated daily for 21 days (Pten^pc-/-; Zbtb7a^pc-/-), for 14 days (Pten^pc-/-; Trp53^pc-/-) or for 14 days (Pten^pc-/-; Pml^pc-/-) by intraperitoneal injection (5 mg/kg). For depletion of Gr-1+/CD11b+ cells, Ly6G-depletion antibody (1A8, BioXcell) and control Rat IgG2a antibody (BioXcell) were diluted in phosphate-buffered saline (PBS) for in vivo administration. Mice (4 months of age) were treated every other day for 10 days by intraperitoneal injection (200-300 μg/mouse). InVivoMAb anti-mouse Ly6G/Ly6C (Gr-1) antibody, clone RB6-8C5 (BE0075, BioXcell), and control Rat IgG2b antibody (BE0090, BioXcell) were diluted in PBS and Pten^pc-/-; Trp53^pc-/- mice were treated every other day for 14 days by intraperitoneal injection (200 μg/mouse). For neutralization of CXCL5, anti-Mouse CXCL5 antibody (Leinco Technologies) and control Rat IgG2a antibody (BioXcell) were diluted in PBS and injected every other day for 21 days by intraperitoneal injection (20 μg/mouse). Tumor volume quantification was performed by using VivoQuant and Image J software. All mouse prostate MRI imaging analysis was performed at Small Animal Imaging Core at BIDMC and acquired on an […] Model M2 1T tabletop scanner. For western blotting, cell lysates were prepared by homogenizing tumor tissue with NP40 Buffer (Boston Bioproducts) supplemented with protease (Roche) and HALT phosphatase inhibitor cocktails (Thermo Scientific) and subsequently subjected to SDS-Gel separation (Invitrogen) and western blotting. The following antibodies were used for western blotting: […] (AC-74; Sigma), CXCL5 (R & D Systems #AF433), pIRAK4 (Cell Signaling Technology #11927S), IRAK4 (Cell Signaling Technology #4363P), IκBα (Cell Signaling Technology #4812S), Zbtb7a (hamster anti-Zbtb7a clone 13E9), PTEN (Cell Signaling Technology #9559S), p53 (Cell Signaling Technology #2524S), p21 (Santa Cruz Biotechnology sc-6246) and HSP90 (BD Biosciences BDB610419). Western blots were quantified using Image J software. For immunohistochemistry, tissues and organoids were fixed in 4% paraformaldehyde and embedded in paraffin in accordance with standard procedures. Embedding and hematoxylin and eosin staining of sections were performed by the Histology Core at BIDMC and analyzed by a pathologist. […]

[2] = system: Pten^pc−/−; Zbtb7a^pc−/− prostate tumors; test: In vivo drug and antibody treatment of Pten^pc−/−; Zbtb7a^pc−/− mice (MRI, flow cytometry, histology, western blot, qRT-PCR); design: species or system mouse
Protocol: as §1, with “pathologist. Sections were stained with anti-LY6G (BioLegend #127603), anti-CD45R (Abcam #ab64100), anti-CD3 (Abcam #ab5690), anti-beta Catenin (Abcam #32572), anti-phospho ERK (Cell Signaling Technology #4376), anti-phospho AKT Ser473 (Cell Signaling Technology #4060) and anti-Ki67 (Thermo Scientific #RM-9106) according to manufacturer's recommendations. For Flow Cytometry, spleen and lymph node single cell suspensions were prepared by mashing the tissue in 2% FBS/PBS. Tumor and control prostate tissue (from anterior lobes) single cell suspension was prepared by mincing the tumor and digestion with Collagenase Type I (Life Technologies #17018029) in 10% DMEM (GIBCO) for 1 hr at 37° C.” for “pathologist.”

[3] = Trp53^pc−/− prostate tumors after treatment

`O=C(Nc1ccc([N+](=O)[O-])cc1O)Nc1ccccc1Br` [SB225002] was tested, and the “tumor growth (tumor volume by MRI)” value ([1]; Trp53^pc−/− mice, intraperitoneal injection, vs vehicle or control IgG) was “significantly suppressed the tumor growth; also recorded: significant inhibition of tumor growth”, the “Treg cells (CD4+/FoxP3+) in tumor (flow cytometry)” value [1, 3] was “less Foxp3+ cells; also recorded: less Treg cells” and the “intra-tumoral Gr-1+/CD11b+ cells (flow cytometry)” value [1, 3] was “decrease of Gr-1+/CD11b+ cells”. For the same molecule, the “tumor burden (histological analysis)” value ([1]; Trp53^pc−/− tumors, anterior prostate lobes) was “reduced tumor burden; also recorded: significantly diminished tumor involvement”, the “tumor growth (tumor volume by MRI)” value ([2]; Zbtb7a^pc−/− mice, intraperitoneal injection, vs vehicle) was “significantly suppressed the tumor growth; also recorded: significant inhibition of tumor growth” and the “intra-tumoral Gr-1+/CD11b+ cells (flow cytometry)” value ([2]; Zbtb7a^pc−/− prostate tumors after treatment) was “decrease of Gr-1+/CD11b+ cells”. The “tumor burden (histological analysis)” value ([2]; Zbtb7a^pc−/− tumors, anterior prostate lobes) was “reduced tumor burden; also recorded: significantly diminished tumor involvement”, the “IκBα protein level (western blot)” value ([2]; Zbtb7a^pc−/− tumors, normalized with β-actin, vs vehicle) was “increased IκBα protein levels” and the “expression of CXCL5 in the prostate tumors” value ([2]; Zbtb7a^pc−/− tumors, vs vehicle) was “elevated expression of CXCL5”.
